Assays:
Lolium multiflorum [1] = assay: Post-emergence herbicidal effect; assay type: in vivo; conditions: Dosage 320 g/ha, one-leaf stage, visual scoring after ca. 3 weeks vs untreated controls, 100% = plants have died
Description: (§1) The following abbreviations are used in the tables below: [table] 2. Post-Emergence Herbicidal Effect and Crop Plant Compatibility Seeds of monocotyledonous or dicotyledonous weed plants or crop plants are planted in wood-fiber pots in sandy loam, covered with earth and grown in a greenhouse under good growth conditions. 2 to 3 weeks after sowing, the test plants are treated in the one-leaf stage. The compounds according to the invention, formulated in the form of wettable powders (WP) or as emulsion concentrates (EC), are then sprayed onto the green plant parts as aqueous suspension or emulsion at a water application rate of 600 to 800 l/ha (converted) with the addition of 0.2% of wetting agent. The dosage of the compounds according to the invention is given in grams per hectare. After ca. 3 weeks' standing time of the test plants in the greenhouse under optimum growth conditions, the effect of the preparations is scored visually in comparison with untreated controls (herbicidal effect in percent (%): 100% effect=plants have died, 0% effect=as control plants).

Stellaria media [2] = assay: Post-emergence herbicidal effect; assay type: in vivo; conditions: Dosage 320 g/ha, one-leaf stage, visual scoring after ca. 3 weeks vs untreated controls, 100% = plants have died
Description: as §1

Veronica persica [3] = assay: Post-emergence herbicidal effect; assay type: in vivo; conditions: Dosage 320 g/ha, one-leaf stage, visual scoring after ca. 3 weeks vs untreated controls, 100% = plants have died
Description: as §1

Setaria viridis [4] = assay: Post-emergence herbicidal effect; assay type: in vivo; conditions: Dosage 320 g/ha, one-leaf stage, visual scoring after ca. 3 weeks vs untreated controls, 100% = plants have died
Description: as §1

Polygonum convolvulus [5] = assay: Post-emergence herbicidal effect; assay type: in vivo; conditions: Dosage 320 g/ha, one-leaf stage, visual scoring after ca. 3 weeks vs untreated controls, 100% = plants have died
Description: as §1

Abutilon theophrasti = assay: Post-emergence herbicidal effect; assay type: in vivo; conditions: Dosage 320 g/ha, one-leaf stage, visual scoring after ca. 3 weeks vs untreated controls, 100% = plants have died
Description: as §1

Echinochloa crus-galli [6] = assay: Post-emergence herbicidal effect; assay type: in vivo; conditions: Dosage 320 g/ha, one-leaf stage, visual scoring after ca. 3 weeks vs untreated controls, 100% = plants have died
Description: as §1

Amaranthus retroflexus [7] = assay: Post-emergence herbicidal effect; assay type: in vivo; conditions: Dosage 320 g/ha, one-leaf stage, visual scoring after ca. 3 weeks vs untreated controls, 100% = plants have died
Description: as §1

Viola tricolor [8] = assay: Post-emergence herbicidal effect; assay type: in vivo; conditions: Dosage 320 g/ha, one-leaf stage, visual scoring after ca. 3 weeks vs untreated controls, 100% = plants have died
Description: as §1

[9] = logp (HCOOH), chemicophysical data; conditions: for chromatographic logP: HCOOH (formic acid)
PHBPU = assay: Post-emergence herbicidal effect; assay type: in vivo; conditions: Dosage 320 g/ha, one-leaf stage, visual scoring after ca. 3 weeks vs untreated controls, 100% = plants have died
Description: as §1, with “2.” for “The following abbreviations are used in the tables below: [table] 2.”

Matricaria inodora [10] = assay: Post-emergence herbicidal effect; assay type: in vivo; conditions: Dosage 320 g/ha, one-leaf stage, visual scoring after ca. 3 weeks vs untreated controls, 100% = plants have died
Description: as §1

Alopecurus myosuroides [11] = assay: Post-emergence herbicidal effect; assay type: in vivo; conditions: Dosage 320 g/ha, one-leaf stage, visual scoring after ca. 3 weeks vs untreated controls, 100% = plants have died
Description: as §1

Cyperus esculentus = assay: Pre-emergence herbicidal effect; assay type: in vivo; conditions: Dosage 320 g/ha, visual scoring after 3 weeks vs untreated controls, 100% = plants have died
Text: (§2) 1. Pre-Emergence Herbicidal Effect and Crop Plant Compatibility Seeds of monocotyledonous or dicotyledonous weed plants or crop plants are planted in wood-fiber pots in sandy loam and covered with earth. The compounds according to the invention, formulated in the form of wettable powders (WP) or as emulsion concentrates (EC), are then applied as aqueous suspension or emulsion at a water application rate of 600 to 800 l/ha (converted) with the addition of 0.2% of wetting agent to the surface of the covering earth. The dosage of the compounds according to the invention is given in grams per hectare. Following the treatment, the pots are placed in a greenhouse and kept under good growth conditions for the test plants. The visual scoring of the damage on the test plants is carried out after an experiment time of 3 weeks in comparison with untreated controls (herbicidal effect in percent (%): 100% effect=plants have died, 0% effect=as control plants). The following abbreviations are used in the tables below: [table]

Lolium multiflorum [12] = assay: Pre-emergence herbicidal effect; assay type: in vivo; conditions: Dosage 320 g/ha, visual scoring after 3 weeks vs untreated controls, 100% = plants have died
Text: as §2

Stellaria media [13] = assay: Pre-emergence herbicidal effect; assay type: in vivo; conditions: Dosage 320 g/ha, visual scoring after 3 weeks vs untreated controls, 100% = plants have died
Text: as §2

Veronica persica [14] = assay: Pre-emergence herbicidal effect; assay type: in vivo; conditions: Dosage 320 g/ha, visual scoring after 3 weeks vs untreated controls, 100% = plants have died
Text: as §2

Matricaria inodora [15] = assay: Pre-emergence herbicidal effect; assay type: in vivo; conditions: Dosage 320 g/ha, visual scoring after 3 weeks vs untreated controls, 100% = plants have died
Text: as §2

Setaria viridis [16] = assay: Pre-emergence herbicidal effect; assay type: in vivo; conditions: Dosage 320 g/ha, visual scoring after 3 weeks vs untreated controls, 100% = plants have died
Text: as §2

Alopecurus myosuroides [17] = assay: Pre-emergence herbicidal effect; assay type: in vivo; conditions: Dosage 320 g/ha, visual scoring after 3 weeks vs untreated controls, 100% = plants have died
Text: as §2

Echinochloa crus-galli [18] = assay: Pre-emergence herbicidal effect; assay type: in vivo; conditions: Dosage 320 g/ha, visual scoring after 3 weeks vs untreated controls, 100% = plants have died
Text: as §2

Amaranthus retroflexus [19] = assay: Pre-emergence herbicidal effect; assay type: in vivo; conditions: Dosage 320 g/ha, visual scoring after 3 weeks vs untreated controls, 100% = plants have died
Text: as §2

Viola tricolor [20] = assay: Pre-emergence herbicidal effect; assay type: in vivo; conditions: Dosage 320 g/ha, visual scoring after 3 weeks vs untreated controls, 100% = plants have died
Text: as §2

Polygonum convolvulus [21] = assay: Pre-emergence herbicidal effect; assay type: in vivo; conditions: Dosage 320 g/ha, visual scoring after 3 weeks vs untreated controls, 100% = plants have died
Text: as §2

Avena fatua = assay: Pre-emergence herbicidal effect; assay type: in vivo; conditions: Dosage 320 g/ha, visual scoring after 3 weeks vs untreated controls, 100% = plants have died
Text: as §2

| Compound | Post-emergence herbicidal effect LOLMU (Lolium multiflorum [1]) [%] | Post-emergence herbicidal effect STEME (Stellaria media [2]) [%] | Post-emergence herbicidal effect VERPE (Veronica persica [3]) [%] | Post-emergence herbicidal effect SETVI (Setaria viridis [4]) [%] | Post-emergence herbicidal effect POLCO (Polygonum convolvulus [5]) [%] | Post-emergence herbicidal effect ABUTH (Abutilon theophrasti) [%] | Post-emergence herbicidal effect ECHCG (Echinochloa crus-galli [6]) [%] | Post-emergence herbicidal effect AMARE (Amaranthus retroflexus [7]) [%] | Post-emergence herbicidal effect VIOTR (Viola tricolor [8]) [%] | logp (HCOOH) [9] | Post-emergence herbicidal effect PHBPU (PHBPU) [%] | Pre-emergence herbicidal effect LOLMU (Lolium multiflorum [12]) [%] | Pre-emergence herbicidal effect STEME (Stellaria media [13]) [%] | Pre-emergence herbicidal effect VERPE (Veronica persica [14]) [%] | Pre-emergence herbicidal effect MATIN (Matricaria inodora [15]) [%] | Pre-emergence herbicidal effect SETVI (Setaria viridis [16]) [%] | Pre-emergence herbicidal effect ALOMY (Alopecurus myosuroides [17]) [%] | Pre-emergence herbicidal effect ECHCG (Echinochloa crus-galli [18]) [%] | Pre-emergence herbicidal effect AMARE (Amaranthus retroflexus [19]) [%] | Pre-emergence herbicidal effect VIOTR (Viola tricolor [20]) [%] | also measured |
| --- | --- | --- | --- | --- | --- | --- | --- | --- | --- | --- | --- | --- | --- | --- | --- | --- | --- | --- | --- | --- | --- |
| Cc1nc(NC2c3ccccc3CC2C)nc(N)c1C#N (racemic) [Example 1.23] | 90 | 90 | 90 | 90 | 100 | 80 | 100 | 80 | 90 | solid; logp (HCOOH): 1.99; 1H-NMR (CDCl3, 400 MHZ, δ in ppm): 1.25 (d, 3H, CH3); | 80 | – | – | – | – | – | – | – | – | – | – |
| Cc1nc(NC2CCc3ccccc32)nc(N)c1C#N (racemic) [Example 1.24] | 100 | 100 | 90 | – | – | – | 90 | – | – | – | – | – | – | – | – | – | – | – | – | – | Post-emergence herbicidal effect MATIN (Matricaria inodora [10]): 80% |
| Cc1nc(NC2CCOc3ccccc32)nc(N)c1C#N (racemic) [Example 1.25] | 95 | 100 | 95 | – | – | – | 90 | 90 | – | solid, m.p.: 213.3° C.; logp (HCOOH): 1.55; 1H-NMR (CDCl3, 400 MHZ, δ in ppm): 2.10 | – | 100 | 100 | 100 | 100 | 100 | 100 | 100 | 100 | 90 | Post-emergence herbicidal effect ALOMY (Alopecurus myosuroides [11]): 90%; Pre-emergence herbicidal effect CYPES (Cyperus esculentus): 100% |
| Cc1nc(NC2CCc3ccc(C(C)C)cc32)nc(N)c1C#N (racemic) [Example 1.28] | – | – | 90 | – | 90 | 90 | 90 | 90 | 90 | wax-like; logp (HCOOH): 2.68; 1H-NMR (CDCl3, 400 MHZ, δ in ppm): 1.20 (d, 6H, CH3); | – | – | – | – | – | – | – | – | – | – | – |
| CCc1nc(N[C@@H]2CCc3ccccc32)nc(N)c1C#N [Example 1.62, 4-Amino-2-[(1R)-2,3-dihydro-1H-inden-1-ylamino]-6-ethylpyrimidine-5-carbonitrile] | 90 | 80 | 80 | – | 80 | – | 90 | – | – | – | 80 | 80 | 100 | 100 | 90 | 90 | 80 | 100 | – | 100 | Post-emergence herbicidal effect ALOMY (Alopecurus myosuroides [11]): 80%; chromatographic logP [9]: 2.18 |
| Cc1ccc2c(c1)[C@H](Nc1nc(N)cc(Cl)n1)[C@@H](C)C2 [Example 1.75] | – | 87 | 85 | – | 80 | – | 85 | 90 | – | – | 90 | 95 | 100 | 100 | 100 | 95 | 100 | 100 | 100 | 100 | Pre-emergence herbicidal effect POLCO (Polygonum convolvulus [21]): 100%; Pre-emergence herbicidal effect AVEFA (Avena fatua): 90% |
| CC[C@H]1Cc2ccc(C)cc2[C@@H]1Nc1nc(C)c(C#N)c(N)n1 [Example 1.96] | 90 | 95 | 85 | 85 | 85 | 85 | 85 | 85 | 85 | – | 90 | 100 | 100 | 100 | 100 | 100 | 100 | 100 | 100 | 100 | Post-emergence herbicidal effect ALOMY (Alopecurus myosuroides [11]): 80%; Pre-emergence herbicidal effect POLCO (Polygonum convolvulus [21]): 100%; Pre-emergence herbicidal effect AVEFA (Avena fatua): 80% |
| Cc1ccc2c(c1)[C@H](Nc1ncc(C#C[Si](C)(C)C)c(N)n1)[C@@H](C)C2 [Example 1.98, N2-[(1R,2S)-2,6-Dimethyl-2,3-dihydro-1H-inden-1-yl]-5-[(trimethylsilyl)ethynyl]-pyrimidine-2,4-diamine] | – | – | – | – | – | – | – | – | – | – | – | – | 100 | 100 | 80 | 80 | – | – | 80 | 100 | chromatographic logP [9]: 2.28; Pre-emergence herbicidal effect CYPES (Cyperus esculentus): 100% |
| Cc1ccc2c(c1)[C@H](Nc1nc(C)c([N+](=O)[O-])c(N)n1)[C@@H](C)C2 [Example 1.120] | – | 85 | 90 | 85 | 80 | 90 | 100 | 90 | 90 | – | 100 | 90 | 100 | 100 | 100 | 100 | 100 | 100 | 100 | 100 | Post-emergence herbicidal effect MATIN (Matricaria inodora [10]): 80%; Pre-emergence herbicidal effect POLCO (Polygonum convolvulus [21]): 100%; Pre-emergence herbicidal effect AVEFA (Avena fatua): 80% |

Reference: patent US8329717B2, “Pyrimidine derivatives and their use for controlling undesired plant growth” (Bayer Cropscience AG, priority 2008, dated 2012)
